Patent US20110257208A1, “COMPOUNDS USEFUL AS FAAH MODULATORS AND USES THEREOF” (priority 2008, published 2011)

Biological target: T1, hFAAH (Homo sapiens, UniProt O00519)
T1 construct: expressed in transfected cells; host or cells: HEK293-TRex (Invitrogen) stably transfected with hFAAH in the pcDNA5-Tet-off vector, or T84 human colon epithelial cells (endogenous hFAAH); used as a microsomal preparation
T1 sequence (O00519 1-579): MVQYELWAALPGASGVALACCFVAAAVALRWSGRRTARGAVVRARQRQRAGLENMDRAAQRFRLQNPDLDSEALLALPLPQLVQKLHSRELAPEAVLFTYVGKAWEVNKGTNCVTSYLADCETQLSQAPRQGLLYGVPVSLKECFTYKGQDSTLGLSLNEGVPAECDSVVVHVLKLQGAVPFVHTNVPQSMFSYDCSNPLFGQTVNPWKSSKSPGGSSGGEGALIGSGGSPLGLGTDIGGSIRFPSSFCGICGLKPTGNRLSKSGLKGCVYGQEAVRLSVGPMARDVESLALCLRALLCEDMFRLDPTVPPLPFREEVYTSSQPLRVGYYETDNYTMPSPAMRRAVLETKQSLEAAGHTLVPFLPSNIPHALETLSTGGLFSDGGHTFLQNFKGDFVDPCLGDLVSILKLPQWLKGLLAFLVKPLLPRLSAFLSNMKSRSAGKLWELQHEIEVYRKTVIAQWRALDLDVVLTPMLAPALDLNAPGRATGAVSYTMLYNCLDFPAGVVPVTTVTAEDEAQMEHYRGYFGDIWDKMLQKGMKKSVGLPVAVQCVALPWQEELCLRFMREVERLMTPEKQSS
Experiment: Fluorimetric assay with hFAAH microsomes (enzymatic, fluorescence based)
Format: biochemical
Conditions: compound at 1 uM, AA-AMC substrate
Method: Human cell line T84 (human colon epithelial cells), which expresses endogenous hFAAH, or HEK293-TRex cells (Invitrogen) stably transfected with hFAAH in the pcDNA5-Tet-off vector are cultured in medium containing DMEM, 10% FBS penicillin/streptomycin, glutamax, 200 μg/ml hygromycin and 0.5 μg/ml blasticidin. Cell collection is done 24 h after induction with doxycycline by first washing the cells with cold PBS and then incubating them with Versene before centrifugation. Cell pellets are then stored at −80° C. until needed. For homogenization, the cell pellets are thawed on ice […] and resuspended in homogenization buffer (50 mM HEPES (pH 7.4), 1 mM EDTA, 1 μM Pepstatin A, 100 μM Leupeptin, 0.1 mg/mL aprotinin). Cell suspensions are then homogenized on ice using the Polytron 1200 C at setting 6 for three 30-second intervals with 30-second rests. The suspension is centrifuged at 1000 g for 10 minutes at 4° C. and the supernatant is collected and further centrifuged at 24000 rpm for 30 minutes at 4° C. using an ultracentrifuge. Pellets are resuspended by adding in cold microsomal buffer (50 mM HEPES (pH 7.4) and 1 mM EDTA) and sheared through a 23-gauge needle five times, keeping the suspension on ice. Protein concentrations are determined using the BCA assay and aliquoted preparations are stored at −80° C. until needed.
Compound potency against hFAAH is determined using an enzymatic assay with a fluorescence readout. Briefly, experiments were carried out in a 96-well plate format (Corning Costar, # 3370) with a total well volume of 160 μL with components added in the following order: assay buffer (50 mM HEPES (pH 7.4), 1 mM EDTA, 1.4 mg/mL BSA), compound solutions (7 different concentrations per compound in duplicate), microsomal enzyme preparation (10 μg per well) and substrate [AA-AMC (arachadonyl 7-amino 4-methyl coumarin amide), 2 μM]. After a brief shaking, a kinetic read of the plate is obtained using a Tecan Safire II in kinetic mode for 275 cycles with excitation and emission wavelengths of 355 and 460 nm, respectively. Raw data is then processed and analyzed using Assay Explorer and GraphPad Prism.
The following compounds have been or can be prepared according to the methods of the invention. An enzymatic (fluorescence based) assay is performed as described above. In Table 1, activity of each compound is expressed as follows: • ++++ % Inhibition >75% • +++ % Inhibition >50% • ++ % Inhibition >25% • + % Inhibition <25%

Structure (SMILES) | inhibition at 1 µM
Cc1nc(C)c(CN2Cc3ncnc(Nc4cnc5ccccc5c4)c3C2)s1 [Compound 28, [6-(2,4-Dimethyl-thiazol-5-ylmethyl)-6,7-dihydro-5H-pyrrolo[3,4-d]pyrimidin-4-yl]-quinolin-3-yl-amine] | > 75%
CC(C)N1Cc2ncnc(Nc3cnc4ccccc4c3)c2C1 [Compound 34, (6-Isopropyl-6,7-dihydro-5H-pyrrolo[3,4-d]pyrimidin-4-yl)-quinolin-3-yl-amine] | < 25%
c1ccc(CCN2Cc3ncnc(Nc4cnc5ccccc5c4)c3C2)cc1 [Compound 22, (6-Phenethyl-6,7-dihydro-5H-pyrrolo[3,4-d]pyrimidin-4-yl)-quinolin-3-yl-amine] | > 75%
FC(F)(F)c1cccc(CN2Cc3ncnc(Nc4cnc5ccccc5c4)c3C2)c1 [Compound 99, Quinolin-3-yl-[6-(3-trifluoromethyl-benzyl)-6,7-dihydro-5H-pyrrolo[3,4-d]pyrimidin-4-yl]-amine] | > 75%
Fc1cccc(CN2Cc3ncnc(Nc4cnc5ccccc5c4)c3C2)c1F [Compound 107, [6-(2,3-Difluoro-benzyl)-6,7-dihydro-5H-pyrrolo[3,4-d]pyrimidin-4-yl]-quinolin-3-yl-amine] | > 75%
FC(F)Oc1ccccc1CN1Cc2ncnc(Nc3cnc4ccccc4c3)c2C1 [Compound 105, [6-(2-Difluoromethoxy-benzyl)-6,7-dihydro-5H-pyrrolo[3,4-d]pyrimidin-4-yl]-quinolin-3-yl-amine] | > 75%
CC(C)CN1Cc2ncnc(Nc3cnc4ccccc4c3)c2C1 [Compound 7, (6-Isobutyl-6,7-dihydro-5H-pyrrolo[3,4-d]pyrimidin-4-yl)-quinolin-3-yl-amine] | > 25%
Cc1ccsc1S(=O)(=O)N1Cc2ncnc(Nc3cnc4ccccc4c3)c2C1 [Compound 56, [6-(3-Methyl-thiophene-2-sulfonyl)-6,7-dihydro-5H-pyrrolo[3,4-d]pyrimidin-4-yl]-quinolin-3-yl-amine] | > 25%
O=S(=O)(c1ccccc1)N1Cc2ncnc(Nc3cnc4ccccc4c3)c2C1 [Compound 65, (6-Benzenesulfonyl-6,7-dihydro-5H-pyrrolo[3,4-d]pyrimidin-4-yl)-quinolin-3-yl-amine] | > 25%
FC(F)(F)CCN1Cc2ncnc(Nc3cnc4ccccc4c3)c2C1 [Compound 31, Quinolin-3-yl-[6-(3,3,3-trifluoro-propyl)-6,7-dihydro-5H-pyrrolo[3,4-d]pyrimidin-4-yl]-amine] | > 50%
CC1(CN2Cc3ncnc(Nc4cnc5ccccc5c4)c3C2)COC1 [Compound 29, [6-(3-Methyl-oxetan-3-ylmethyl)-6,7-dihydro-5H-pyrrolo[3,4-d]pyrimidin-4-yl]-quinolin-3-yl-amine] | > 25%
c1ccc(C2CC2)c(CN2Cc3ncnc(Nc4cnc5ccccc5c4)c3C2)c1 [Compound 112, [6-(2-Cyclopropyl-benzyl)-6,7-dihydro-5H-pyrrolo[3,4-d]pyrimidin-4-yl]-quinolin-3-yl-amine] | > 75%
c1ccc2ncc(Nc3ncnc4c3CN(Cc3ccncc3)C4)cc2c1 [Compound 94, (6-Pyridin-4-ylmethyl-6,7-dihydro-5H-pyrrolo[3,4-d]pyrimidin-4-yl)-quinolin-3-yl-amine] | > 75%
COc1ccccc1S(=O)(=O)N1Cc2ncnc(Nc3cnc4ccccc4c3)c2C1 [Compound 73, [6-(2-Methoxy-benzenesulfonyl)-6,7-dihydro-5H-pyrrolo[3,4-d]pyrimidin-4-yl]-quinolin-3-yl-amine] | > 25%
O=C(CN1CCCC1)N1Cc2ncnc(Nc3cnc4ccccc4c3)c2C1 [Compound 54, 2-Pyrrolidin-1-yl-1-[4-(quinolin-3-ylamino)-5,7-dihydro-pyrrolo[3,4-d]pyrimidin-6-yl]-ethanone] | < 25%
CCC(C)CN1Cc2ncnc(Nc3cnc4ccccc4c3)c2C1 (stereo not drawn) [Compound 8, [6-(2-Methyl-butyl)-6,7-dihydro-5H-pyrrolo[3,4-d]pyrimidin-4-yl]-quinolin-3-yl-amine] | > 75%
Cn1nccc1CN1Cc2ncnc(Nc3cnc4ccccc4c3)c2C1 [Compound 24, [6-(2-Methyl-2H-pyrazol-3-ylmethyl)-6,7-dihydro-5H-pyrrolo[3,4-d]pyrimidin-4-yl]-quinolin-3-yl-amine] | > 25%
Cc1ccoc1CN1Cc2ncnc(Nc3cnc4ccccc4c3)c2C1 [Compound 86, [6-(3-Methyl-furan-2-ylmethyl)-6,7-dihydro-5H-pyrrolo[3,4-d]pyrimidin-4-yl]-quinolin-3-yl-amine] | > 75%
c1ccc2ncc(Nc3ncnc4c3CN(CC3CCOC3)C4)cc2c1 (stereo not drawn) [Compound 13, Quinolin-3-yl-[6-(tetrahydro-furan-3-ylmethyl)-6,7-dihydro-5H-pyrrolo[3,4-d]pyrimidin-4-yl]-amine] | > 25%
CCCCCN1Cc2ncnc(Nc3cnc4ccccc4c3)c2C1 [Compound 10, (6-Pentyl-6,7-dihydro-5H-pyrrolo[3,4-d]pyrimidin-4-yl)-quinolin-3-yl-amine] | > 50%
Cc1cccc(C)c1CN1Cc2ncnc(Nc3cnc4ccccc4c3)c2C1 [Compound 88, [6-(2,6-Dimethyl-benzyl)-6,7-dihydro-5H-pyrrolo[3,4-d]pyrimidin-4-yl]-quinolin-3-yl-amine] | > 50%
COc1ccccc1CN1Cc2ncnc(Nc3cnc4ccccc4c3)c2C1 [Compound 83, [6-(2-Methoxy-benzyl)-6,7-dihydro-5H-pyrrolo[3,4-d]pyrimidin-4-yl]-quinolin-3-yl-amine] | > 75%
CC(C)(C)OC(=O)N1Cc2ncnc(Nc3cnc4ccccc4c3)c2C1 [Compound 45, 4-(Quinolin-3-ylamino)-5,7-dihydro-pyrrolo[3,4-d]pyrimidine-6-carboxylic acid tert-butyl ester] | > 50%
CC(CC(C)(C)C)N1Cc2ncnc(Nc3cnc4ccccc4c3)c2C1 (stereo not drawn) [Compound 39, Quinolin-3-yl-[6-(1,3,3-trimethyl-butyl)-6,7-dihydro-5H-pyrrolo[3,4-d]pyrimidin-4-yl]-amine] | < 25%
c1ccc2ncc(Nc3ncnc4c3CN(C3CCC3)C4)cc2c1 [Compound 43, (6-Cyclobutyl-6,7-dihydro-5H-pyrrolo[3,4-d]pyrimidin-4-yl)-quinolin-3-yl-amine] | < 25%
c1ccc2ncc(Nc3ncnc4c3CN(CC3CC3)C4)cc2c1 [Compound 5, (6-Cyclopropylmethyl-6,7-dihydro-5H-pyrrolo[3,4-d]pyrimidin-4-yl)-quinolin-3-yl-amine] | < 25%
Clc1ccccc1CN1Cc2ncnc(Nc3cnc4ccccc4c3)c2C1 [Compound 84, [6-(2-Chloro-benzyl)-6,7-dihydro-5H-pyrrolo[3,4-d]pyrimidin-4-yl]-quinolin-3-yl-amine] | > 75%
c1ccc2ncc(Nc3ncnc4c3CN(CC3CCCC3)C4)cc2c1 [Compound 12, (6-Cyclopentylmethyl-6,7-dihydro-5H-pyrrolo[3,4-d]pyrimidin-4-yl)-quinolin-3-yl-amine] | > 75%
c1ccc2ncc(Nc3ncnc4c3CN(Cc3ccnc5ccccc35)C4)cc2c1 [Compound 85, Quinolin-3-yl-(6-quinolin-4-ylmethyl-6,7-dihydro-5H-pyrrolo[3,4-d]pyrimidin-4-yl)-amine] | > 50%
OCCCCN1Cc2ncnc(Nc3cnc4ccccc4c3)c2C1 [Compound 20, 4-[4-(Quinolin-3-ylamino)-5,7-dihydro-pyrrolo[3,4-d]pyrimidin-6-yl]-butan-1-ol] | < 25%
